Experimental data reported in PMC9400670, “Establishing the selective phospholipid membrane coordination, permeation and lysis properties for a series of ‘druggable’ supramolecular self-associating antimicrobial amphiphiles” (Chemical Science, 2022).

Tested on: PC, PG and PE : PG mixed nanodiscs
Experiment: Phospholipid nanodisc 1H NMR CPMG coordination assay, comparison across the three nanodiscs
Assay type: binding
Conditions: SSA 0.10 mM, in words
Description: Finally, to establish how any single SSA structural variation affects the coordination of an individual salt component to the surface of a phospholipid membrane, the binding of the anionic and cationic components of SSAs 5–12 with nanodiscs comprised of PC, PG or the PE : PG mix (Table 2) was studied. Nanodiscs were synthesised from synthetic vesicles of the relevant phospholipid composition. For full synthetic procedures and nanodisc characterisation please see ESI (Section 13). ^†[34,35]
Styrene-maleic acid (SMA) nanodiscs are small biomimetic scaffolds with a hydrodynamic diameter ≈ 10 nm. […]
Fluorescence polarisation: Lipid films were resuspended in Buffer (150 mM KCl, 10 mM HEPES, pH 7.4, 2 mM EGTA) and subjected to 9 freeze-thaw cycles in liquid nitrogen and extruded 20 times through a 200 nm polycarbonate membrane. […]
Nanodisc preparation: Lipid films were resuspended in Buffer (20 mM NaCl, 20 mM NaH 2PO4, pH 7.4) and sonicated for 1 hour, at a 5:1 ratio, SMA was added and incubated at 37 °C for 1 hour. Dialysed overnight in 5 L of the same buffer in 10 KDa cut-off dialysis tubing, concentrated, and underwent gel filtration size exclusion chromatography on a Superdex 200 10/300 GL column (GE Healthcare) in the same buffer, whilst monitoring absorbance at 260 nm. Nanodisc quantification carried out via monitoring of absorbance at 260 nm using a calibration curve.2 […]

SMILES: Cc1ccc2nc(NC(=O)NCS(=O)(=O)O)sc2c1 [SSA 7]
- interaction of the anionic component of SSA with phospholipid nanodiscs: not to interact with any great significance to any of the phospholipid nanodiscs tested

SMILES: Cc1ccc2nc(-c3ccc(NC(=S)NCS(=O)(=O)O)cc3)sc2c1 [SSA 12]
- interaction of the anionic component of SSA with phospholipid nanodiscs: greatest binding affinity for all three nanodiscs of the SSAs tested
